Reference: US11434479B2, “Sialic acid binding polypeptide” (priority 2017, dated 2022)

Experiments:
[1] = biological target: T1, Streptococcus pneumoniae NanB fragment (residues 30-697, SEQ ID NO:4) variant Sia-3S1, R193A, D270Q, A538V, E541D (Streptococcus pneumoniae serotype 4, UniProt Q54727, A538V/D270Q/E541D/R193A); test: Bio-layer Interferometry (BLI) binding to immobilized 3′SL and 6′SL; details: in words, well-defined buffer conditions (10 mM EPPS, 10 or 25 mM NaCl, pH 7.5)
T1 construct: exemplified by a NanB fragment (residues 30-697); made in house; host or cells: E. coli
T1 sequence (Q54727 30-692 R193A/D270Q/A538V/E541D): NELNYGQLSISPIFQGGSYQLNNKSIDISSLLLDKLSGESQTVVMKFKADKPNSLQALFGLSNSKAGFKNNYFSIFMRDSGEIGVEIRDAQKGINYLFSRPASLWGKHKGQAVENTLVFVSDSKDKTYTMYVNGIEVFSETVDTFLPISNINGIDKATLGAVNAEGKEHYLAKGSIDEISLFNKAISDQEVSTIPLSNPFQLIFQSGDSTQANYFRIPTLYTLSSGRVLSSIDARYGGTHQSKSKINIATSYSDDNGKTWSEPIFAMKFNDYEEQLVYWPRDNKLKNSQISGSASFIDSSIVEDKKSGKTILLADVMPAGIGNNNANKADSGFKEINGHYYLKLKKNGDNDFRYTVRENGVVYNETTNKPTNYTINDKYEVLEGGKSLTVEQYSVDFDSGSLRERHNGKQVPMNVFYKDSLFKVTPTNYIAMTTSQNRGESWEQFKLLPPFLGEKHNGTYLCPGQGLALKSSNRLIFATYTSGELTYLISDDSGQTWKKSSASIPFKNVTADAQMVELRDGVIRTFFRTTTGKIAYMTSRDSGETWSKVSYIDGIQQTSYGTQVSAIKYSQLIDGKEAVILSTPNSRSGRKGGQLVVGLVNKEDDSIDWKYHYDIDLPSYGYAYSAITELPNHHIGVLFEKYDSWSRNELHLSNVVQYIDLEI
Procedure: FIGS. 14A and […] show BLI sensograms for the binding of Sia-3S1 (analyte) under different buffer conditions to oligosaccharides (immobilized ligands): 3′SL=α2,3-sialyllactose, 6′SL=α2,6-sialyllactose.
The flowchart presented in FIG. 2 outlines schematically the methods employed in Example I and II to screen, optimize and select the Lectenz® candidates. The specificity and affinity of potential Lectenz® candidates is evaluated through structurally-guided site-specific and/or site-saturation mutagenesis assays designed to enable the selection of optimal clones. Bio-layer Interferometry (BLI) is used to determine the binding kinetics and affinities for binding to glycans and glycoproteins. Affinity chromatography is performed by immobilizing the Lectenz® candidates in a column format to evaluate their ability to fractionate sialylated- and asialo-glycans and glycoconjugates. All promising Lectenz® candidates are screened against the glycan array at the CFG, which currently contains over 600 O- and N-linked glycans.
The methods are as described in Example I.

[2] = biological target: MAL (Maackia amurensis leukoagglutinin); details: reported values [16, 17]; cited from earlier work
[3] = biological target: SNA (S. Nigra lectin); details: reported values [16]; cited from earlier work

Compound	affinity [1]	Kd [2]	Kd [3]
CC(=O)N[C@H]1[C@H]([C@H](O)[C@H](O)CO)O[C@@](O[C@H]2[C@@H](O)[C@@H](CO)O[C@@H](O[C@H]3[C@H](O)[C@@H](O)C(O)O[C@@H]3CO)[C@@H]2O)(C(=O)O)C[C@@H]1O (stereo partly drawn) [3′SL, α2,3-sialyllactose]	high and preferential affinity for 3′SL over 6′SL	1000 to 3000 nM	
CC(=O)N[C@H]1[C@H]([C@H](O)[C@H](O)CO)O[C@@](OC[C@H]2O[C@@H](O[C@H]3[C@H](O)[C@@H](O)C(O)O[C@@H]3CO)[C@H](O)[C@@H](O)[C@H]2O)(C(=O)O)C[C@@H]1O (stereo partly drawn) [6′SL, 6′-sialyllactose (Neu5Acα2,6Galβ1, 4Glcβ, or 6′SL)]			600 to 900 nM
